Experimental data from patent publication US8404751B2, “Subunguicide, and method for treating onychomycosis” (Hallux, Inc., priority 2002, dated 2013).
Counter-ions that a name gives are not always drawn.

Experiment: Solubility of terbinafine HCl in isopropyl alcohol
Assay type: physicochemical
Experimental: Terbinafine free base was prepared by adding 2.0 g of terbinafine HCl to 8.0 g of isopropyl alcohol (IPA) and 4.0 g Dowex Marathon A OH ion exchange resin. This resin exchanges OH^− for Cl^− and was washed with IPA prior to use. With the Cl^− removed from solution, the free base formed and the terbinafine went into solution within 5-10 minutes. (Terbinafine HCl is soluble in IPA up to 3.7%.) The reaction with the resin was run for 4 hours. Presence of the free base was confirmed by adding a drop of this IPA solution into water and measuring pH with a color strip. Adding the IPA solution caused the water pH to increase approximately one unit. The resin added OH^− to the solution, which reacted with H^+ and increased the water content. Excess water was removed by storing the terbinafine free base solution over molecular sieves for one week.

CN(C/C=C/C#CC(C)(C)C)Cc1cccc2ccccc12 [Terbinafine HCl, terbinafine HCl]
soluble in IPA up to: 3.7%
